Test results taken from ChEMBL document CHEMBL1201862, “PubChem BioAssay data set” (2004).
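Step 1: Grow cells in 96-well plates. Step 2: Expose to compound for 48 hours at 5 concentrations. Step 3: Interpolate endpoints linearly; if unreached, use highest concentration. The concentration for 50% growth inhibition is given as GI50.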 Active and inactive are the calls of the source. Rule as the data show it: active = GI50 up to about 1.1 µM and inactive = higher.

Key:
Test in all cases: DTP human tumour cell line panel, 48 h
SF-295 = test system: SF-295
HOP-62 = test system: HOP-62
NCI-H460 = test system: NCI-H460
SF-539 = test system: SF-539
HCC 2998 = test system: HCC 2998
EKVX = test system: EKVX
KM-20L2 = test system: KM-20L2
CCRF-CEM = test system: CCRF-CEM
MOLT-4 = test system: MOLT-4
HL-60 = test system: HL-60
XF498 = test system: XF498
ACHN = test system: ACHN
OVCAR-8 = test system: OVCAR-8
DMS-273 = test system: DMS-273
SN12C = test system: SN12C
U-251 = test system: U-251
SW-620 = test system: SW-620
IGROV-1 = test system: IGROV-1
A498 = test system: A498
RPMI-8226 = test system: RPMI-8226
M19-MEL = test system: M19-MEL
SK-MEL-2 = test system: SK-MEL-2
SNB-75 = test system: SNB-75
OVCAR-4 = test system: OVCAR-4
HCT-15 = test system: HCT-15
SK-MEL-28 = test system: SK-MEL-28
NCI-H23 = test system: NCI-H23
KM12 = test system: KM12
OVCAR-3 = test system: OVCAR-3
SNB-78 = test system: SNB-78
DLD-1 = test system: DLD-1
SK-MEL-5 = test system: SK-MEL-5
UACC-257 = test system: UACC-257
CAKI-1 = test system: CAKI-1
RXF 393 = test system: RXF 393
786-0 = test system: 786-0
HT-29 = test system: HT-29
OVCAR-5 = test system: OVCAR-5
A549 = test system: A549
SK-OV-3 = test system: SK-OV-3
UACC-62 = test system: UACC-62
TK-10 = test system: TK-10
DMS-114 = test system: DMS-114
HCT-116 = test system: HCT-116
LXFL 529 = test system: LXFL 529
K562 = test system: K562
RXF 631 = test system: RXF 631
M14 = test system: M14
NCI-H226 = test system: NCI-H226
Malme-3M = test system: Malme-3M
UO-31 = test system: UO-31
LOX IMVI = test system: LOX IMVI
HOP-92 = test system: HOP-92
SNB-19 = test system: SNB-19
SF-268 = test system: SF-268
COLO 205 = test system: COLO 205

In the case of COC(=O)C1=C2CCC(=O)[C@@]2(C)C(OC(C)=O)C=CC1 (some centres not stated), the GI50 (SF-295) is reported as 37.1 µM (inactive), the GI50 (HOP-62) is reported as > 100 µM (inactive) and the GI50 (NCI-H460) is reported as > 100 µM (inactive). The GI50 (SF-539) was 49.3 µM (inactive), the GI50 (HCC 2998) was > 100 µM (inactive) and the GI50 (EKVX) was > 100 µM (inactive). For the same molecule, the GI50 (KM-20L2) was > 100 µM (inactive), the GI50 (CCRF-CEM) was 22.9 µM (inactive) and the GI50 (MOLT-4) was 35.9 µM (inactive). For the same molecule, the GI50 (HL-60) was 29.5 µM (inactive), the GI50 (XF498) was 36.3 µM (inactive) and the GI50 (ACHN) was > 100 µM (inactive). The GI50 (OVCAR-8) was 43 µM (inactive), the GI50 (DMS-273) was 36.6 µM (inactive) and the GI50 (SN12C) was > 100 µM (inactive). The GI50 (U-251) was 59.6 µM (inactive), the GI50 (SW-620) was 36.4 µM (inactive) and the GI50 (IGROV-1) was > 100 µM (inactive). The GI50 (A498) was > 100 µM (inactive), the GI50 (RPMI-8226) was 34.6 µM (inactive) and the GI50 (M19-MEL) was > 100 µM (inactive). For the same molecule, the GI50 (SK-MEL-2) was 71.6 µM (inactive), the GI50 (SNB-75) was 56.8 µM (inactive) and the GI50 (OVCAR-4) was > 100 µM (inactive). The GI50 (HCT-15) was 29.5 µM, the GI50 (SK-MEL-28) was > 100 µM (inactive) and the GI50 (NCI-H23) was 76.9 µM (inactive). The GI50 (KM12) was > 100 µM (inactive), the GI50 (OVCAR-3) was 53.6 µM (inactive) and the GI50 (SNB-78) was 57 µM (inactive). For the same molecule, the GI50 (DLD-1) was 41.6 µM (inactive), the GI50 (SK-MEL-5) was > 100 µM (inactive) and the GI50 (UACC-257) was 40.5 µM (inactive). For the same molecule, the GI50 (CAKI-1) was > 100 µM (inactive), the GI50 (RXF 393) was > 100 µM (inactive) and the GI50 (786-0) was > 100 µM (inactive). For the same molecule, the GI50 (HT-29) was > 100 µM (inactive), the GI50 (OVCAR-5) was > 100 µM (inactive) and the GI50 (A549) was > 100 µM (inactive). The GI50 (SK-OV-3) was > 100 µM (inactive), the GI50 (UACC-62) was 76.6 µM (inactive) and the GI50 (TK-10) was > 100 µM (inactive). For the same molecule, the GI50 (DMS-114) was 32.7 µM (inactive), the GI50 (HCT-116) was 24.5 µM (inactive) and the GI50 (LXFL 529) was 36.8 µM (inactive). The GI50 (K562) was 30.8 µM (inactive), the GI50 (RXF 631) was 20.5 µM (inactive) and the GI50 (M14) was 88.9 µM (inactive). For the same molecule, the GI50 (NCI-H226) was > 100 µM (inactive), the GI50 (Malme-3M) was > 100 µM (inactive) and the GI50 (UO-31) was > 100 µM (inactive).
For CSc1nc(NC(=O)O)c(N(C(C)=O)C(=O)O)c(=O)n1C, the GI50 (SF-295) was > 100 µM (inactive), the GI50 (NCI-H460) was > 100 µM (inactive) and the GI50 (SF-539) was > 100 µM (inactive). For the same molecule, the GI50 (HCC 2998) was > 100 µM (inactive), the GI50 (EKVX) was > 100 µM (inactive) and the GI50 (KM-20L2) was > 100 µM (inactive). For the same molecule, the GI50 (CCRF-CEM) was > 100 µM (inactive), the GI50 (MOLT-4) was > 100 µM (inactive) and the GI50 (HL-60) was > 100 µM (inactive). The GI50 (LOX IMVI) was > 100 µM (inactive), the GI50 (XF498) was > 100 µM (inactive) and the GI50 (ACHN) was > 100 µM (inactive). The GI50 (OVCAR-8) was > 100 µM (inactive), the GI50 (DMS-273) was > 100 µM (inactive) and the GI50 (SN12C) was > 100 µM (inactive). The GI50 (U-251) was > 100 µM (inactive), the GI50 (SW-620) was > 100 µM (inactive) and the GI50 (IGROV-1) was > 100 µM (inactive). For the same molecule, the GI50 (A498) was > 100 µM (inactive), the GI50 (HOP-92) was > 100 µM (inactive) and the GI50 (RPMI-8226) was > 100 µM (inactive). The GI50 (M19-MEL) was > 100 µM (inactive), the GI50 (SNB-19) was > 100 µM (inactive) and the GI50 (SK-MEL-2) was > 100 µM (inactive). For the same molecule, the GI50 (OVCAR-4) was > 100 µM (inactive), the GI50 (HCT-15) was > 100 µM and the GI50 (SK-MEL-28) was > 100 µM (inactive). The GI50 (KM12) was > 100 µM (inactive), the GI50 (OVCAR-3) was > 100 µM (inactive) and the GI50 (SNB-78) was > 100 µM (inactive). For the same molecule, the GI50 (DLD-1) was > 100 µM (inactive), the GI50 (SK-MEL-5) was > 100 µM (inactive) and the GI50 (UACC-257) was > 100 µM (inactive). For the same molecule, the GI50 (CAKI-1) was > 100 µM (inactive), the GI50 (RXF 393) was > 100 µM (inactive) and the GI50 (786-0) was > 100 µM (inactive). The GI50 (HT-29) was > 100 µM (inactive), the GI50 (OVCAR-5) was > 100 µM (inactive) and the GI50 (A549) was > 100 µM (inactive). For the same molecule, the GI50 (SF-268) was > 100 µM (inactive), the GI50 (UACC-62) was > 100 µM (inactive) and the GI50 (COLO 205) was > 100 µM (inactive). For the same molecule, the GI50 (DMS-114) was > 100 µM (inactive), the GI50 (HCT-116) was > 100 µM (inactive) and the GI50 (LXFL 529) was > 100 µM (inactive). The GI50 (K562) was > 100 µM (inactive), the GI50 (RXF 631) was > 100 µM (inactive) and the GI50 (M14) was > 100 µM (inactive). For the same molecule, the GI50 (NCI-H226) was > 100 µM (inactive), the GI50 (Malme-3M) was > 100 µM (inactive) and the GI50 (UO-31) was > 100 µM (inactive).
